In general, AC50 refers to the midpoint of the concentration-response curve, whichever way the signal moves. In general, EC50 refers to the concentration needed to bring the measured effect to its halfway point. As usually defined, the IC50 is the concentration needed to halve the response being measured.

The values below come from patent US12590062B2, “PD-1/PD-L1 inhibitors” (Gilead Sciences, Inc., priority 2017, dated 2026).

SMILES strings stand for the structures.

The target in experiment [1] is T1, PD-L1 (Homo sapiens, UniProt Q9NZQ7).
T1 construct: determine if they can specifically dimerize the extracellular domains of PD-L1
The experiment in a line: PD-L1/PD-L1 dimerization biochemical protein-protein interaction assay (ALPHA). The note with it: compound-induced PD-L1 dimerization, head prints '1 nM' (0.5 nM His-tagged PD-L1 and 0.5 nM FLAG-tagged PD-L1), read-out: AC50 PDL1 Dimer Alpha 1 nM. It is filed as binding. The method, boiled down:
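After 2 h at 25 °C with compound, His- and FLAG-tagged PD-L1 ECDs (each 0.5 nM final; 25 mM Hepes pH 7.4, 150 mM NaCl) were detected by sequential anti-His acceptor and anti-FLAG donor bead incubations. Dose-response curves fitted to four-parameter equation for AC50.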

For experiment [2], the target named is T2, PD-1/PD-L1 interaction (Homo sapiens, UniProt Q9NZQ7).
T2 construct: expressed in transfected cells; host or cells: CHO cells (aAPC-PD-L1) co-cultured with Jurkat cells overexpressing PD-1 and an NFAT-luciferase reporter
The experiment in a line: PD-1/PD-L1 NFAT reporter co-culture assay. It is filed as cell-based. The note with it: Jurkat PD-1 NFAT-luciferase cells co-cultured with aAPC-PD-L1 CHO cells, 6 hrs at 37° C.; read-out: EC50 NFAT Luciferase. The method, boiled down:
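Restoration of TCR-driven NFAT luciferase signal: 6 h, 37 °C co-culture of PD-1 Jurkat reporter cells (pre-mixed with compound) on overnight-seeded PD-L1/anti-CD3 CHO monolayer. ONE-Glo luminescence; dose-response fitted to four-parameter equation for EC50.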

For experiment [3], the target named is PD-1/PD-L1 (Homo sapiens, UniProt Q9NZQ7). Description: PD-1/PD-L1 biochemical protein-protein interaction assay (ALPHA). It is filed as binding. The note with it: 0.3 nM His tagged PD-L1, 2.5 nM biotinylated Fc-PD-1, 60 minutes at 25° C., read-out: IC50 PD-L1-PD-1 Alpha IC50-mono PD-L1-fcP-D1. The method, boiled down:
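His-PD-L1 ECD 0.3 nM + biotin-Fc-PD-1 2.5 nM (final), 25 mM Hepes pH 7.4, 150 mM NaCl, 3.4 mM EDTA; 60 min, 25° C; anti-His acceptor/streptavidin donor ALPHA beads; decreased signal = blocked binding; 4-parameter IC50.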

Sequence of PD-1/PD-L1 (Q9NZQ7 19-238 limits assumed): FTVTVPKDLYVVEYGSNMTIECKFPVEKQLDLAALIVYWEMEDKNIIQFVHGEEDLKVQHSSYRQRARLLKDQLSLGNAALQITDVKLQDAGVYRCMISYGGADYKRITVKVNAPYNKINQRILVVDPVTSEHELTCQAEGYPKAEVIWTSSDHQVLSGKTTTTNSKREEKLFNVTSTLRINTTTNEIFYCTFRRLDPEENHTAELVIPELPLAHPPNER
T1 sequence (Q9NZQ7 19-238 limits assumed): as above
T1 sequence (Q9NZQ7 19-238 limits assumed): as above
T2 sequence (Q9NZQ7 19-290): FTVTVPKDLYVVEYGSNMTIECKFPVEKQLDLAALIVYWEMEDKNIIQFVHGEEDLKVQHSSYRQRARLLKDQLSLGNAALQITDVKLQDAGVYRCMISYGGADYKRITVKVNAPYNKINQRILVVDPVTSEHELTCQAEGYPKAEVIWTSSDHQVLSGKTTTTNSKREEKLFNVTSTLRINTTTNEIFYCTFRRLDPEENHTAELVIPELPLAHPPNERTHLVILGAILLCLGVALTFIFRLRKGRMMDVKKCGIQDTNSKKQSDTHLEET

`Cc1c(COc2cc(OCc3cncc(C#N)c3)c(CNC[C@@H](O)CC(=O)O)cc2Cl)cccc1-c1cccc(-c2ccc(CNC[C@@H](O)CC(=O)O)c(-c3ccccc3)c2)c1C` [Example 514]: the AC50 in experiment [1] amounted to 359 nM. Besides, the EC50 in experiment [2] amounted to 156 nM. In experiment [3], the IC50 is 0.735 nM.

On to `COc1nc(O[C@H]2CCc3c(-c4cccc(-c5ccc(CNC[C@@H]6CCC(=O)N6)cc5)c4Cl)cccc32)c(Cl)cc1CN1CC2(CCC(=O)N2)C1` [Example 729], for which, in experiment [1], the AC50 was 49 nM. The EC50 in experiment [2] was determined as 652 nM. In addition, in experiment [3], the IC50 amounted to 0.935 nM.

`N#Cc1cc(C#N)cc(COc2nc(OCc3cccc(-c4cccc(-c5ccc(CNC[C@@H]6CCC(=O)N6)cc5)c4Cl)c3Cl)c(Cl)cc2CNC[C@@H](O)CC(=O)O)c1` [Example 576]: the AC50 in experiment [1] was 24.3 nM. The EC50 in experiment [2] stood at 32 nM. In addition, in experiment [3], the 50% inhibitory concentration (IC50) is 0.169 nM.

In the case of `COc1cc(-c2cccc(-c3cccc4c3CC[C@@H]4Oc3nc(OC)c(CNC[C@@H]4CCC(=O)N4)cc3Cl)c2Cl)nc(Cl)c1CNC[C@@H]1CCC(=O)N1` [Example 799], in experiment [1], the AC50 was found to be 150 nM. In experiment [2], the EC50 is 167 nM. Besides, the half-inhibitory concentration (IC50) in experiment [3] was 0.341 nM.

`COc1nc(-c2cccc(-c3cccc4c3CC[C@@H]4Oc3nc(OC)c(CN4CC(C(=O)O)C4)cc3Cl)c2Cl)ccc1CNC[C@@H]1CCC(=O)N1` [Example 757]: in experiment [1], the AC50 worked out at 17.6 nM. The EC50 in experiment [2] amounted to 15 nM. Besides, the IC50 in experiment [3] worked out at 0.064 nM.

As to `COc1nc(-c2cccc(-c3cccc4c3CC[C@@H]4Oc3nc(OC)c(CNC[C@@H]4CCC(=O)N4)cc3Br)c2Br)ccc1CNC[C@@H]1CCC(=O)N1` [Example 698], the AC50 in experiment [1] came to 111 nM. The EC50 in experiment [2] was found to be 152 nM. Moreover, in experiment [3], the IC50 was 0.704 nM.

For the compound `Cc1c(COc2cc(OCc3cncc(C#N)c3)c(CN[C@@](C)(CO)C(=O)O)cc2Cl)cccc1-c1cccc(-c2ccc(OCCNCCO)c(C(=O)NC3CC3)c2)c1C` [Example 459], the AC50 in experiment [1] was found to be 89.9 nM. Moreover, the 50% effective concentration (EC50) in experiment [2] amounted to 1200 nM. For the same compound, the IC50 in experiment [3] was found to be 0.064 nM.

As to `Cc1c(COc2cc(OCc3cncc(C#N)c3)c(CN[C@@](C)(CO)C(=O)O)cc2Cl)cccc1-c1cc(F)cc(-c2ccc(CN(C)C)cc2)c1Cl` [Example 457], the AC50 in experiment [1] worked out at 49.3 nM. In addition, the EC50 in experiment [2] came out at 1560 nM. Moreover, the IC50 in experiment [3] came out at 0.064 nM.

In the case of `COc1nc(O[C@H]2CCc3c(-c4cccc(-c5ccc(CNC[C@@H]6CCC(=O)N6)cc5)c4Cl)cccc32)c(Cl)cc1CNC[C@@H](O)CC(=O)O` [Example 732], in experiment [1], the concentration at half-maximal activity (AC50) was determined as 2.69 nM. Besides, in experiment [2], the EC50 came out at 14 nM. Also, in experiment [3], the IC50 came to 0.074 nM.

Turning to `COc1nc(-c2cccc(-c3cccc(COc4nc(OCc5cc(C#N)cc(C#N)c5)c(CNC[C@@H](O)CC(=O)O)cc4Cl)c3Cl)c2Cl)ccc1CNC[C@@H]1CCC(=O)N1` [Example 568], in experiment [1], the AC50 was 44.3 nM. For the same compound, in experiment [2], the EC50 was found to be 65 nM. The IC50 in experiment [3] stood at 0.064 nM.

As to `COc1nc(O[C@H]2CCc3c(-c4cccc5c4CC[C@@H]5Oc4ccc(CNC[C@@H](O)CC(=O)O)c(OCc5cncc(C#N)c5)n4)cccc32)c(Br)cc1CNC[C@@H](O)CC(=O)O` [Example 678], the AC50 in experiment [1] was determined as 254 nM. Further, the EC50 in experiment [2] turned out to be 264 nM. Also, in experiment [3], the IC50 is 0.105 nM.

Turning to `C[C@@](CO)(NCc1cc(Cl)c(O[C@H]2CCc3c(-c4cccc(-c5ccc(OCCNCCO)cc5)c4Cl)cccc32)nc1OCc1cc(C#N)cc(C#N)c1)C(=O)O` [Example 332, (S)-2-(((5-chloro-6-(((S)-4-(2-chloro-4′-(2-((2-hydroxyethyl)amino)ethoxy)-[1,1′-biphenyl]-3-yl)-2,3-dihydro-1H-inden-1-yl)oxy)-2-((3,5-dicyanobenzyl)oxy)pyridin-3-yl)methyl)amino)-3-hydroxy-2-methylpropanoic acid], the AC50 in experiment [1] was 18.7 nM. The half-maximal effective concentration (EC50) in experiment [2] amounted to 47 nM. Moreover, the IC50 in experiment [3] was found to be 0.114 nM.

On to `Cc1c(COc2cc(OCc3cncc(C#N)c3)c(CN[C@@](C)(CO)C(=O)O)cc2Cl)cccc1-c1cccc(-c2ccc(CN3CC4(CCC(=O)N4)C3)cc2)c1C` [Example 579], for which the AC50 in experiment [1] is 34.8 nM. Moreover, the EC50 in experiment [2] was determined as 191 nM. Besides, the IC50 in experiment [3] is 0.064 nM.

In the case of `N#CCOc1cc(-c2cccc(-c3cccc4c3CC[C@@H]4Oc3nc(OCC#N)c(CNC[C@@H]4CCC(=O)N4)cc3Cl)c2Cl)ccc1CNC[C@@H]1CCC(=O)N1` [Example 653], in experiment [1], the AC50 is 105 nM. Besides, the EC50 in experiment [2] is 93 nM. Besides, the IC50 in experiment [3] turned out to be 0.17 nM.

On to `Cc1c(COc2cc(OCc3cncc(C#N)c3)c(CN[C@@](C)(CO)C(=O)O)cc2Cl)cccc1-c1cccc(-c2ccc(CN[C@H]3CC[C@H](O)CC3)cc2)c1C` [Example 361, (S)-2-((5-chloro-2-((5-cyanopyridin-3-yl)methoxy)-4-((4″-((((1r,4r)-4-hydroxycyclohexyl)amino)methyl)-2,2′-dimethyl-[1,1′:3′,1″-terphenyl]-3-yl)methoxy)benzyl)amino)-3-hydroxy-2-methylpropanoic acid], for which the AC50 in experiment [1] stood at 138 nM. For the same compound, the EC50 in experiment [2] is 314 nM. In experiment [3], the IC50 came out at 0.13 nM.

On to `COc1cc(-c2cccc(-c3cccc4c3CC[C@@H]4Oc3ccc(CN[C@@](C)(CO)C(=O)O)c(OC)n3)c2Cl)ccc1C1=NCCN1` [Example 777], for which the AC50 in experiment [1] was 45.8 nM. In addition, the EC50 in experiment [2] was 179 nM. Further, the IC50 in experiment [3] was 0.064 nM.

As to `Cc1c(COc2cc(OCc3cncc(C#N)c3)c(CNC[C@@H](O)CC(=O)O)cc2Cl)cccc1-c1cccc(-c2ccc([C@H](C)N(C)C)cc2)c1C` [Example 380, (S)-4-((5-chloro-2-((5-cyanopyridin-3-yl)methoxy)-4-((4″-((S)-1-(dimethylamino)ethyl)-2,2′-dimethyl-[1,1′:3′,1″-terphenyl]-3-yl)methoxy)benzyl)amino)-3-hydroxybutanoic acid], the AC50 in experiment [1] was 184 nM. In experiment [2], the EC50 worked out at 652 nM. Besides, the half-maximal inhibitory concentration (IC50) in experiment [3] stood at 0.282 nM.

Consider `COc1nc(O[C@H]2CCc3c(-c4cccc(-c5ccc(CNC[C@@H]6CCC(=O)N6)cc5)c4Cl)cccc32)c(Cl)cc1CN1CCCC[C@H]1C(=O)O` [Example 715], for which the AC50 in experiment [1] was determined as 7.89 nM. Further, the EC50 in experiment [2] amounted to 35 nM. Also, the IC50 in experiment [3] came to 0.064 nM.

As for `Cc1c(COc2cc(OCc3cncc(C#N)c3)c(CN[C@@](C)(CO)C(=O)O)cc2Cl)cccc1-c1cccc(-c2ccc(CN(C)C)cc2)c1Br` [Example 483], the AC50 in experiment [1] is 40.9 nM. In experiment [2], the EC50 turned out to be 69 nM. In addition, the IC50 in experiment [3] turned out to be 0.064 nM.

Take `CC(C)(NCc1cc(Cl)c(OCc2cccc(-c3cccc(-c4ccc(OCCNCCO)cc4)c3Cl)c2Cl)nc1OCc1cncc(S(C)(=O)=O)c1)C(=O)O` [Example 304, 2-(((5-chloro-6-((2,2′-dichloro-4″-(2-((2-hydroxyethyl)amino)ethoxy)-[1,1′:3′,1″-terphenyl]-3-yl)methoxy)-2-((5-(methylsulfonyl)pyridin-3-yl)methoxy)pyridin-3-yl)methyl)amino)-2-methylpropanoic acid]: in experiment [1], the AC50 is 16.5 nM. Further, in experiment [2], the EC50 came out at 79 nM. In experiment [3], the IC50 was found to be 0.064 nM.

On to `CNC(=O)COc1cc(-c2cccc(-c3cccc(COc4cc(OCc5cncc(C#N)c5)c(CNC[C@@H](O)CC(=O)O)cc4Cl)c3C)c2C)ccc1C1=NCCN1` [Example 436], for which the AC50 in experiment [1] came out at 77.8 nM. For the same compound, in experiment [2], the EC50 came out at 544 nM. The IC50 in experiment [3] amounted to 0.064 nM.

Regarding `COc1nc(O[C@H]2CCc3c(-c4cccc(-c5ccc(CNC[C@@H]6CCC(=O)N6)c(OCC#N)c5)c4Cl)cccc32)c(Cl)cc1CNC[C@@H]1CCC(=O)N1` [Example 655], the AC50 in experiment [1] turned out to be 26 nM. Besides, the EC50 in experiment [2] turned out to be 28 nM. Also, in experiment [3], the IC50 was found to be 0.404 nM.

For `Cc1c(COc2cc(OCc3cncc(C#N)c3)c(CNC[C@@H](O)CC(=O)O)cc2Cl)cccc1-c1cccc(NC(=O)c2ccc(CNC[C@@H](O)CC(=O)O)cn2)c1C` [Example 346, (S)-4-(((6-((3′-((4-((((S)-3-carboxy-2-hydroxypropyl)amino)methyl)-2-chloro-5-((5-cyanopyridin-3-yl)methoxy)phenoxy)methyl)-2,2′-dimethyl-[1,1′-biphenyl]-3-yl)carbamoyl)pyridin-3-yl)methyl)amino)-3-hydroxybutanoic acid], the AC50 in experiment [1] was found to be 181 nM. Moreover, the EC50 in experiment [2] turned out to be 214 nM. The IC50 in experiment [3] came to 0.074 nM.

Regarding `Cc1c(COc2nc(OCc3cc(C#N)cc(C#N)c3)c(CNC(C)(CO)C(=O)O)cc2Cl)cccc1-c1cccc(-c2ccc(OCCNCCO)cc2)c1C` (stereo not drawn) [Example 471], the AC50 in experiment [1] turned out to be 80 nM. In addition, the EC50 in experiment [2] stood at 144 nM. In experiment [3], the IC50 was 0.205 nM.

With `COc1nc(-c2cccc(-c3cccc(-c4nc5ccc(CNC[C@@H]6CCC(=O)N6)cn5n4)c3Cl)c2Cl)ccc1CNC[C@@H]1CCC(=O)N1` [Example 633], the AC50 in experiment [1] was 2840 nM. Besides, the EC50 in experiment [2] was found to be 2280 nM. Moreover, the IC50 in experiment [3] came to 1.26 nM.
